Results as given in patent US8198273B2, “Compounds and methods for kinase modulation, and indications therefor” (Plexxikon Inc., priority 2009, dated 2012).
pIC50: −log10 of the molar value.

Key:
[1] = target: CYP3A4(BFC) (Homo sapiens, UniProt P08684); assay: CYP3A4(BFC) inhibition (fluorescent substrate); assay type: in vitro ADME; conditions: read-out: Cyp IC50 3A4(BFC)
Method in brief: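 Inhibition was followed as loss of fluorescent metabolite from a known substrate, with compound in co-factor mix as a 10-point 1:1 serial dilution (100 mM DMSO stock).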

[2] = target: CYP2C9 (Homo sapiens, UniProt P11712); assay: CYP2C9 inhibition (fluorescent substrate); assay type: in vitro ADME; conditions: CYP2C9, MFC substrate; read-out: Cyp IC50 2C9
Method in brief: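 IC50 values come from plotting product fluorescence against compound concentration; inhibition lowers formation of the fluorescent metabolite. Ten-point twofold dilutions in co-factor mix were held 10 minutes at 37 °C before the enzyme reaction, also run at 37 °C.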

[3] = target: B-Raf V600E (Homo sapiens, UniProt P15056, V600E); assay: B-Raf V600E biochemical kinase inhibition (AlphaScreen, biotin-MEK1 substrate); conditions: 100 μM ATP
Method in brief: (§1)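 IC50 derived from AlphaScreen signal plotted against compound concentration. Final ATP 100 μM; 3 h incubation at room temperature. Eight-point 3-fold dilution series prepared from a 0.1 mM DMSO stock.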

[4] = target: c-Raf-1 (Homo sapiens, UniProt P04049); assay: c-Raf-1 biochemical kinase inhibition (AlphaScreen, biotin-MEK1 substrate); conditions: 100 μM ATP
Method in brief: as §1

Sequence of CYP2C9 (P11712 whole entry): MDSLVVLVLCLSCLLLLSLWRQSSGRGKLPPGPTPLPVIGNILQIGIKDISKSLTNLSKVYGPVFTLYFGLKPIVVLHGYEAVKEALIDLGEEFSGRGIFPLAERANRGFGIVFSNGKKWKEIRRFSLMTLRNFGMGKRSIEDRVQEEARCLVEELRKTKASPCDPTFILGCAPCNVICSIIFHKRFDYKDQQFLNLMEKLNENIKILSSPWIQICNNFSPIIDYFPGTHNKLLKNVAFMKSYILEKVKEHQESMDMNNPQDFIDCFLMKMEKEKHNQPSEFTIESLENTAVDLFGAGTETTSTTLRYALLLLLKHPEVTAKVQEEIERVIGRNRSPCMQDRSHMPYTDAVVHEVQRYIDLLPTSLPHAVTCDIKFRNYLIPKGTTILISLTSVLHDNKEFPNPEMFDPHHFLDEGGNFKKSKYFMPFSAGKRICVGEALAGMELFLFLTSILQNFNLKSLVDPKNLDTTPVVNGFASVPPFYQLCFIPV
Sequence of c-Raf-1 (P04049 whole entry): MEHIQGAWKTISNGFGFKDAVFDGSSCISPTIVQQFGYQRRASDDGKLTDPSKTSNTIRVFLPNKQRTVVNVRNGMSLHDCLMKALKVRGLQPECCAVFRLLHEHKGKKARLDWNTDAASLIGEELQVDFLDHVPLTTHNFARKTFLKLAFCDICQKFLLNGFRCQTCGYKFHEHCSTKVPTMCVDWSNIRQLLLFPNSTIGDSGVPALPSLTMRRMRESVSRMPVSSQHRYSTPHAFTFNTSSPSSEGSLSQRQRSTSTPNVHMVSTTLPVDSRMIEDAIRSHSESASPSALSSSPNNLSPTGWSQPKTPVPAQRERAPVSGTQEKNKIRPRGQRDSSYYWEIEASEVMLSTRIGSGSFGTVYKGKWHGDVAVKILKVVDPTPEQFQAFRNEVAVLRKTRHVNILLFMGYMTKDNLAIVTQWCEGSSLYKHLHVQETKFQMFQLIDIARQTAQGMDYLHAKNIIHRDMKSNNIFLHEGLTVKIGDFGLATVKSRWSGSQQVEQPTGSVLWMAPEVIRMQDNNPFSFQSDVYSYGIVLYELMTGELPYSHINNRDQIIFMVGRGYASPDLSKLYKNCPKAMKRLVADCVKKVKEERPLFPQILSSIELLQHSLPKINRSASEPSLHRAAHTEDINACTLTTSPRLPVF
Sequence of B-Raf V600E (P15056 whole entry V600E): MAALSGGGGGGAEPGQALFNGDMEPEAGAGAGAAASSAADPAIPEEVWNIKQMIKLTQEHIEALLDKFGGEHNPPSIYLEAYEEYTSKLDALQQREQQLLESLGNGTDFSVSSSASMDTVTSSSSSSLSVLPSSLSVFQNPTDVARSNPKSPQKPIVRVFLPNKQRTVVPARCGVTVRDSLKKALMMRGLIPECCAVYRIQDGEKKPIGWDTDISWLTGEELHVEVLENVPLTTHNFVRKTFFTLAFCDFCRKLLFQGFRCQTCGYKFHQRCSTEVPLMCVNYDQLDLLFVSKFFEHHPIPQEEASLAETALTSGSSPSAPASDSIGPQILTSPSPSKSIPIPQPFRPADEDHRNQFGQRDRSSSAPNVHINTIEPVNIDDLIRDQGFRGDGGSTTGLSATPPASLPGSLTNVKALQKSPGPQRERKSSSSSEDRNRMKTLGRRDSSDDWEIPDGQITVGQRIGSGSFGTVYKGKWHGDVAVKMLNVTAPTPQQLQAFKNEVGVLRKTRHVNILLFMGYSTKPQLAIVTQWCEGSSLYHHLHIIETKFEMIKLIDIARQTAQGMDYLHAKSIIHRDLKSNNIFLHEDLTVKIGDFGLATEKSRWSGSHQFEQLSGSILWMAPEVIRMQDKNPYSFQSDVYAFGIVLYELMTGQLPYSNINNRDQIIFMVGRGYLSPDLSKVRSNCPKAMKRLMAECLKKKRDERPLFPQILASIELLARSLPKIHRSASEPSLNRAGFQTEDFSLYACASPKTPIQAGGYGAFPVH
Sequence of CYP3A4(BFC) (P08684 whole entry): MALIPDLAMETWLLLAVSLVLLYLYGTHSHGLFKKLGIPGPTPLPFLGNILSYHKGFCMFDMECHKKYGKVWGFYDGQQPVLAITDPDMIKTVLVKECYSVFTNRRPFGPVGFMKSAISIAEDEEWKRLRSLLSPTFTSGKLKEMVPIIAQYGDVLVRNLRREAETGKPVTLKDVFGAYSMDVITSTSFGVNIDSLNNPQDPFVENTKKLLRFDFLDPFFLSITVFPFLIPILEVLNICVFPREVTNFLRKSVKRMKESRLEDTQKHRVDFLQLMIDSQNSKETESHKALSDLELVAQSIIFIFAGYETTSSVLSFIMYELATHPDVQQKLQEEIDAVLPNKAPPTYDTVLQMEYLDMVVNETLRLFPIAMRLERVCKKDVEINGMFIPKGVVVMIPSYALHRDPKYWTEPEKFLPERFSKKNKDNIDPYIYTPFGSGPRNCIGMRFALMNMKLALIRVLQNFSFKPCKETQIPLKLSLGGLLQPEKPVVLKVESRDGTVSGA

pIC50 [1]: < 5.00
pIC50 [2]: 5.00 to 5.30
pIC50 [3]: > 7.00
pIC50 [4]: > 7.00
Compound: CCCS(=O)(=O)Nc1ccc(F)c(C(=O)c2c[nH]c3ncc(-c4ccc(N(C)C)nc4)cc23)c1F [P-2229, Propane-1-sulfonic acid {3-[5-(6-dimethylamino-pyridin-3-yl)-1H-pyrrolo[2,3-b]pyridine-3-carbonyl]-2,4-difluoro-phenyl}-amide]
